Test results from ChEMBL document CHEMBL5143654, “Synthesis and biological evaluation of marine natural product, Cryptoechinuline D derivatives as novel antiangiogenic agents” (Bioorg Med Chem Lett, 2022).
pIC50: −log10 of the molar value. Active and inactive are the calls of the source. The calls are words filed in the database; no cut-off is given here.

Columns and labels:
[1] = system: HUVEC; experiment: Cytotoxicity against HUVEC cells assessed as cell viability at 50 uM measured after 24 hrs by MTT assay; type: functional; conditions: Homo sapiens, read-out: Activity
[2] = system: HUVEC; experiment: Anti-angiogenesis activity against HUVEC cells assessed as decrease in Ang2 level at 5 to 10 uM measured after 24 hrs by Western blot analysis; type: functional, cell-based; conditions: Homo sapiens, dose 5-10 µM
[3] = system: HUVEC; experiment: Anti-angiogenesis activity against HUVEC cells assessed as decrease in Tie2 phosphorylation at Tyr1102/1100 level at 5 to 10 uM measured after 24 hrs by Western blot analysis; type: functional, cell-based; conditions: Homo sapiens, dose 5-10 µM
[4] = system: HUVEC; experiment: Anti-angiogenesis activity against HUVEC cells assessed as inhibition of horizontal migration at 5 to 10 uM measured after 8 hrs by wound healing assay; type: functional, cell-based; conditions: Homo sapiens, dose 5-10 µM
[5] = system: HUVEC; experiment: Anti-angiogenesis activity against HUVEC cells assessed as inhibition of cell migration at 5 to 10 uM measured after 24 hrs by Matrigel invasion assay; type: functional, cell-based; conditions: Homo sapiens, dose 5-10 µM
[6] = system: HUVEC; experiment: Cytotoxicity against HUVEC cells assessed as inhibition of cell viability measured after 24 hrs by MTT assay; type: functional, cell-based; conditions: Homo sapiens
[7] = system: HUVEC; experiment: Antiproliferative activity against HUVEC assessed as decrease in number Edu-positive cells at 5 to 10 uM after 24 hrs by fluorescence microscopic analysis; type: functional, cell-based; conditions: Homo sapiens, dose 5-10 µM
[8] = system: HUVEC; experiment: Anti-angiogenesis activity against HUVEC cells assessed as inhibition of vertical migration at 5 to 10 uM measured after 24 hrs by Transwell assay; type: functional, cell-based; conditions: Homo sapiens, dose 5-10 µM

| SMILES | viability at 50 µM [1] | other results |
| --- | --- | --- |
| C=CC(C)(C)c1[nH]c2ccccc2c1/C=C1\NC(=O)[C@@]2(C[C@@H](C)C=C[C@H]2/C=C/c2c(OC)cc(CC=C(C)C)c(O)c2CN2CCCC2)NC1=O (racemic) | 81.6% | – |
| C=CC(C)(C)c1[nH]c2ccccc2c1/C=C1\NC(=O)[C@@]2(C[C@@H](C)C=C[C@H]2/C=C/c2c(OC(C)=O)cc(CC=C(C)C)c(OC(C)=O)c2COC(C)=O)NC1=O (racemic) | 83.2% | – |
| C=CC(C)(C)c1[nH]c2ccccc2c1/C=C1\NC(=O)[C@@]2(C[C@@H](C)C=C[C@H]2/C=C/c2c(OC)cc(CC=C(C)C)c(O)c2C=O)NC1=O (racemic) | 31.1% | – |
| C=CC(C)(C)c1[nH]c2ccccc2c1/C=C1\NC(=O)[C@@]2(C[C@@H](C)C=C[C@H]2/C=C/c2c(OC(C)=O)cc(CC=C(C)C)c(O)c2CO)NC1=O (racemic) | 40.4% | – |
| C=CC(C)(C)c1[nH]c2ccccc2c1/C=C1\NC(=O)[C@@]2(C[C@@H](C)C=C[C@H]2/C=C/c2c(OC(C)=O)cc(CC=C(C)C)c(OC(C)=O)c2C=O)NC1=O (racemic) | 5.33% | inhibition [2]: Active; inhibition [3]: Active; inhibition [4]: Active; inhibition [5]: Active; pIC50 [6]: 4.90; inhibition ([6]; DDE = dose-dependent effect): Dde; inhibition [7]: Active; inhibition [8]: Active |
| C=CC(C)(C)c1[nH]c2ccccc2c1/C=C1\NC(=O)[C@@]2(C[C@@H](C)C=C[C@H]2/C=C/c2c(OC(C)=O)cc(CC=C(C)C)c(O)c2CN(CC)CC)NC1=O (racemic) | 94.3% | – |
| C=CC(C)(C)c1[nH]c2ccccc2c1/C=C1\NC(=O)[C@@]2(C[C@@H](C)C=C[C@H]2/C=C/c2c(OC)cc(CC=C(C)C)c(OC)c2C=O)NC1=O (racemic) | 87.5% | – |
| C=CC(C)(C)c1[nH]c2ccccc2c1/C=C1\NC(=O)[C@@]2(C[C@@H](C)C=C[C@H]2/C=C/c2c(OC(C)=O)cc(CC=C(C)C)c(O)c2C#N)NC1=O (racemic) | 71.8% | – |
| C=CC(C)(C)c1[nH]c2ccccc2c1/C=C1\NC(=O)[C@@]2(C[C@@H](C)C=C[C@H]2/C=C/c2c(O)cc(CC=C(C)C)c(O)c2C=O)NC1=O (racemic) | 82.1% | – |
| C=CC(C)(C)c1[nH]c2ccccc2c1/C=C1\NC(=O)[C@@]2(C[C@@H](C)C=C[C@H]2/C=C/c2c(OC(C)=O)cc(CC=C(C)C)c(O)c2/C=N\O)NC1=O (racemic) | 93% | – |
| C=CC(C)(C)c1[nH]c2ccccc2c1/C=C1\NC(=O)[C@@]2(C[C@@H](C)C=C[C@H]2/C=C/c2c(OC(C)=O)cc(CC=C(C)C)c(OC(C)=O)c2/C=N\O)NC1=O (racemic) | 94.4% | – |
| C=CC(C)(C)c1[nH]c2ccccc2c1/C=C1\NC(=O)[C@@]2(C[C@@H](C)C=C[C@H]2/C=C/c2c(OC(C)=O)cc(CC=C(C)C)c(O)c2C=O)NC1=O (racemic) | 33.7% | – |
| C=CC(C)(C)c1[nH]c2ccccc2c1/C=C1\NC(=O)[C@@]2(C[C@@H](C)C=C[C@H]2/C=C/c2c(O)cc(CC=C(C)C)c(OC)c2C=O)NC1=O (racemic) | 78.7% | – |
